Measurements as given in patent publication US12042503B2, “Compositions and methods for treating coronavirus infections” (priority 2020, dated 2024).

Target: T1, EP1 receptor (PTGER1) (Homo sapiens, UniProt P34995)
T1 construct: host or cells: PathHunter beta-arrestin cell line
T1 sequence (P34995 1-402): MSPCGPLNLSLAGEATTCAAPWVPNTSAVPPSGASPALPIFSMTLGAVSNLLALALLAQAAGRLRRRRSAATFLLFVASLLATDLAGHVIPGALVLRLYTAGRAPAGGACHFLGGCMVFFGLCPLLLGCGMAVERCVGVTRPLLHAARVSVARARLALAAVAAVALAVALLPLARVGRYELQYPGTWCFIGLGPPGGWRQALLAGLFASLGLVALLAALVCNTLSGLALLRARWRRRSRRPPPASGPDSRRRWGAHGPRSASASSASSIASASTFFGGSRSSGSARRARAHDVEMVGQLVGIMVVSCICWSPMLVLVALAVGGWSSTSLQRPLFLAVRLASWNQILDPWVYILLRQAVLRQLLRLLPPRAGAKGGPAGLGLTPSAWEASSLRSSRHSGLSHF
Assay: PathHunter beta-arrestin cell-based prostanoid receptor assay, EP1
Settings: β-Arrestin
Description: DiscoverX cell-based ligand binding assays were performed in the PathHunter beta-arrestin (EP1, EP2, EP3, EP4, FP, IP, and TP receptors) or cAMP Hunter™ (DP receptor) cell lines.
Receptor binding studies were performed in either the PathHunter® b-Arrestin (EP1, EP2, EP3, EP4, FP, IP, and TP receptors) or cAMP Hunter™ (DP receptor) cell lines. A 10 mM working stock of GP1681 was created in 1×PBS, pH 7.4. All assays were carried out in duplicate with 10 individual concentrations of GP1681. A three-fold dilution series of GP1681 was established for the initial or pilot experiment with a starting concentration of 4 uM (starting concentration was chosen based on previous Gemmus Pharma preclinical experimental results).
GP1681 was incubated with cells lines at either 37° C. or room temperature, for 90-180 minutes (temperatures and incubation times are all dependent on established optimized procedures for each receptor cell line) after which cell wells were processed and signal production detected. […] Vehicle only controls (PBS, pH 7.4) were also included for each receptor cell line. Receptor binding activity was analyzed using CBIS data analysis suite (ChemInnovation, CA). The percentage of activity was calculated using the following formula: % Activity=100%×(mean RLU of test sample−mean RLU of vehicle control)/(mean MAX control ligand−mean RLU of vehicle control). Dose curves were performed and EC50 values determined.
The four assays were repeated with a higher starting concentration.
The second experimental run of the receptor binding assay was performed with these last four cell lines including GP1681 and their respective positive and negative (vehicle, PBS pH 7.4) controls. A 10 mM GP1681 working stock was again created in 1×PBS, pH 7.4. A three-fold serial dilution scheme was again used for GP1681 samples, starting this time at a concentration of 500 μM. The remainder of the second experimental run was performed in the same manner as run 1.

CC#CCC(C)C(O)C=CC1C(O)CC2Oc3c(CCCC(=O)O)cccc3C21 (single isomer, unassigned) [GP1681, esuberaprost]
EC50 (Run 1, GP1681 starting concentration 4 uM, curve for GP1681 not fully sigmoidal): 1.08 µM | EC50 (Run 2, GP1681 starting concentration 500 μM): 7.81 µM
